Reference: patent US8871753B2, “Macrocyclic compounds and their use as kinase inhibitors” (Incyte Corporation, priority 2008, dated 2014)
Structures can show the parent of a compound that is named as a salt. Where two headings read alike, the source gives them in different places.

Assays:
Assay type in all cases: biochemical
[1] = biological target: T1, human JAK3 (a.a. 781-1124) (Homo sapiens, UniProt P52333); test: In vitro JAK kinase assay (HTRF, phosphorylation of a biotinylated peptide), JAK3
T1 construct: JAK3 (a.a. 781-1124); His tag (N); made in house; host or cells: insect cells (baculovirus)
Outline: (§1)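 Phosphorylation of a biotinylated peptide by the JAK kinase domain, detected by HTRF with Eu-Py20 and SA-APC. ATP was 90 μM for JAK1, 30 μM for JAK2 and 3 μM for JAK3. Reactions ran 1 h at room temperature and were stopped with EDTA, followed by 40 min antibody binding.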

[2] = biological target: T2, Recombinant Human Anaplastic Lymphoma Kinase (Homo sapiens, UniProt Q9UM73); test: ALK HTRF kinase assay
T2 construct: purchased Invitrogen, Carlsbad, Calif
Outline: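 Recombinant human ALK phosphorylated a biotinylated synthetic peptide. Phosphotyrosine was detected by TR-FRET between a Eu-labelled anti-phosphotyrosine antibody and streptavidin-allophycocyanin. IC50 values came from fitting signal against inhibitor concentration to a four-parameter logistic equation with variable Hill slope.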

TYK2 = TYK2 (Homo sapiens, UniProt P29597); test: TYK2 kinase inhibition (Table A1)
[3] = biological target: T3, human JAK1 (a.a. 837-1142) (Homo sapiens, UniProt P23458); test: In vitro JAK kinase assay (HTRF, phosphorylation of a biotinylated peptide), JAK1; conditions: read-out: JAK1 IC50
T3 construct: human JAK1 (a.a. 837-1142); His tag (N); made in house; host or cells: insect cells (baculovirus)
Outline: as §1

[4] = biological target: T4, human JAK2 (a.a. 828-1132) (Homo sapiens, UniProt O60674); test: In vitro JAK kinase assay (HTRF, phosphorylation of a biotinylated peptide), JAK2
T4 construct: JAK2 (a.a. 828-1132); His tag (N); made in house; host or cells: insect cells (baculovirus)
Outline: as §1

[5] = method AA1 (3 μM ATP) or AA2 (1000 μM ATP), not stated per value
[6] = compound at 500 nM or 1 mM, 90 μM ATP
[7] = method AA1 (90 μM ATP) or AA2 (1000 μM ATP), not stated per value
[8] = method AA1 (30 μM ATP) or AA2 (1000 μM ATP), not stated per value
[9] = Table B1, cells without percent sign
[10] = compound at a concentration of 500 nM or 1 mM (not specified), cells shown as percentage

T4 sequence (O60674 828-1132): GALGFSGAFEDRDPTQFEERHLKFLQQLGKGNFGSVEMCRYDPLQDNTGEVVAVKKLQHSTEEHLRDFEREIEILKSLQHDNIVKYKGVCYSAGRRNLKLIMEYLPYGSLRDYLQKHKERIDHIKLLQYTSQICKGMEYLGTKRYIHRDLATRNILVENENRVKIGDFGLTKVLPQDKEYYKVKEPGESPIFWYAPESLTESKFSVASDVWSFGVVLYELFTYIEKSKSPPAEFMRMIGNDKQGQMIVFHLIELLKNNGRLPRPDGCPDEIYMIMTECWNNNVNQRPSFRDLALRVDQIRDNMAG
TYK2, sequence (P29597 whole entry): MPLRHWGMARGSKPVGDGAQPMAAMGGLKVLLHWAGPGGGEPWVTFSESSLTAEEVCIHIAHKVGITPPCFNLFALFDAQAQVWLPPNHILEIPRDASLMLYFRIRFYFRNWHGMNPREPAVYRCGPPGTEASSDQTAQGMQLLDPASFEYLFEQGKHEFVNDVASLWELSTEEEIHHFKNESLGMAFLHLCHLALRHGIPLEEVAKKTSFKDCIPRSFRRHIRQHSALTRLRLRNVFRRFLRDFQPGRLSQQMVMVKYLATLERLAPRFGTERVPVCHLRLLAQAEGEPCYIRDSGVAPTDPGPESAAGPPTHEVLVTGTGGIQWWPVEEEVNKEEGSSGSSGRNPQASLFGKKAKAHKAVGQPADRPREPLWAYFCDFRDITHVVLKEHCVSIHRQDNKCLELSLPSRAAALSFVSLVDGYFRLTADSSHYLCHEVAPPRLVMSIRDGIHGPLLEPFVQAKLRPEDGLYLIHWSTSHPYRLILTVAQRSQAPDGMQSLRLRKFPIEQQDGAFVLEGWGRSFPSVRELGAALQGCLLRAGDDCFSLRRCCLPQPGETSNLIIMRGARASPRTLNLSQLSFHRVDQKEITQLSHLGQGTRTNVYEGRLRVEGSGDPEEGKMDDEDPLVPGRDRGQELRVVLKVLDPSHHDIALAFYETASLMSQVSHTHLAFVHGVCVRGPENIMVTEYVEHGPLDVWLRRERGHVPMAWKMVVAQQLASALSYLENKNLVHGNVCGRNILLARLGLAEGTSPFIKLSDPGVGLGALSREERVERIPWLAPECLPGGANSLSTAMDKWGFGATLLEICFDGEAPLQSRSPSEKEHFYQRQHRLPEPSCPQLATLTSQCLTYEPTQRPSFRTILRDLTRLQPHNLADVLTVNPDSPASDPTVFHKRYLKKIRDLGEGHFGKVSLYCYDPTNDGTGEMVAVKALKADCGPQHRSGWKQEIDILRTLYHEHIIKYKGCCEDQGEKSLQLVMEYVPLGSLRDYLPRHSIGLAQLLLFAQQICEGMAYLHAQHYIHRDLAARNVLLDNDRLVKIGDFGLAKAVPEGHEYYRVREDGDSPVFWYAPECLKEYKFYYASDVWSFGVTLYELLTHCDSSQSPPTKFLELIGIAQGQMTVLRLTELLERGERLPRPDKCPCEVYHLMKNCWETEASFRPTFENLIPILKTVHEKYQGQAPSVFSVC
T1 sequence (P52333 781-1124): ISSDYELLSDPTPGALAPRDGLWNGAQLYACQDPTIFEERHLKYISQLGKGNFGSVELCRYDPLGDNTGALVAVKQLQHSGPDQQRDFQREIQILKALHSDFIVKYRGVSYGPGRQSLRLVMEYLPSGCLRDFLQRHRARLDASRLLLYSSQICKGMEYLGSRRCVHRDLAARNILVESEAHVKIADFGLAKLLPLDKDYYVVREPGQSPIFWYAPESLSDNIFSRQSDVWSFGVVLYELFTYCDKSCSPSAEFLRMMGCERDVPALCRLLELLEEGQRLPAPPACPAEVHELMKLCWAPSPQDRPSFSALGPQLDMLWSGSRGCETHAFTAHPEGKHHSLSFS
T3 sequence (P23458 849-1154): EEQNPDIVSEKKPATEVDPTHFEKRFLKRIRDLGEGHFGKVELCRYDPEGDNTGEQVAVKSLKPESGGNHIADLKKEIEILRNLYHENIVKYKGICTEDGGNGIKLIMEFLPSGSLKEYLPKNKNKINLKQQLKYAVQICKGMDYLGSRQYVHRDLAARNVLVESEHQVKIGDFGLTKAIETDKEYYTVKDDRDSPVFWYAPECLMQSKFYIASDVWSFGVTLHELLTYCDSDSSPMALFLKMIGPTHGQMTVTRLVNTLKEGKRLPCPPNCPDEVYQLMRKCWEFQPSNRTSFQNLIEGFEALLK
T2 sequence (Q9UM73 19-1620): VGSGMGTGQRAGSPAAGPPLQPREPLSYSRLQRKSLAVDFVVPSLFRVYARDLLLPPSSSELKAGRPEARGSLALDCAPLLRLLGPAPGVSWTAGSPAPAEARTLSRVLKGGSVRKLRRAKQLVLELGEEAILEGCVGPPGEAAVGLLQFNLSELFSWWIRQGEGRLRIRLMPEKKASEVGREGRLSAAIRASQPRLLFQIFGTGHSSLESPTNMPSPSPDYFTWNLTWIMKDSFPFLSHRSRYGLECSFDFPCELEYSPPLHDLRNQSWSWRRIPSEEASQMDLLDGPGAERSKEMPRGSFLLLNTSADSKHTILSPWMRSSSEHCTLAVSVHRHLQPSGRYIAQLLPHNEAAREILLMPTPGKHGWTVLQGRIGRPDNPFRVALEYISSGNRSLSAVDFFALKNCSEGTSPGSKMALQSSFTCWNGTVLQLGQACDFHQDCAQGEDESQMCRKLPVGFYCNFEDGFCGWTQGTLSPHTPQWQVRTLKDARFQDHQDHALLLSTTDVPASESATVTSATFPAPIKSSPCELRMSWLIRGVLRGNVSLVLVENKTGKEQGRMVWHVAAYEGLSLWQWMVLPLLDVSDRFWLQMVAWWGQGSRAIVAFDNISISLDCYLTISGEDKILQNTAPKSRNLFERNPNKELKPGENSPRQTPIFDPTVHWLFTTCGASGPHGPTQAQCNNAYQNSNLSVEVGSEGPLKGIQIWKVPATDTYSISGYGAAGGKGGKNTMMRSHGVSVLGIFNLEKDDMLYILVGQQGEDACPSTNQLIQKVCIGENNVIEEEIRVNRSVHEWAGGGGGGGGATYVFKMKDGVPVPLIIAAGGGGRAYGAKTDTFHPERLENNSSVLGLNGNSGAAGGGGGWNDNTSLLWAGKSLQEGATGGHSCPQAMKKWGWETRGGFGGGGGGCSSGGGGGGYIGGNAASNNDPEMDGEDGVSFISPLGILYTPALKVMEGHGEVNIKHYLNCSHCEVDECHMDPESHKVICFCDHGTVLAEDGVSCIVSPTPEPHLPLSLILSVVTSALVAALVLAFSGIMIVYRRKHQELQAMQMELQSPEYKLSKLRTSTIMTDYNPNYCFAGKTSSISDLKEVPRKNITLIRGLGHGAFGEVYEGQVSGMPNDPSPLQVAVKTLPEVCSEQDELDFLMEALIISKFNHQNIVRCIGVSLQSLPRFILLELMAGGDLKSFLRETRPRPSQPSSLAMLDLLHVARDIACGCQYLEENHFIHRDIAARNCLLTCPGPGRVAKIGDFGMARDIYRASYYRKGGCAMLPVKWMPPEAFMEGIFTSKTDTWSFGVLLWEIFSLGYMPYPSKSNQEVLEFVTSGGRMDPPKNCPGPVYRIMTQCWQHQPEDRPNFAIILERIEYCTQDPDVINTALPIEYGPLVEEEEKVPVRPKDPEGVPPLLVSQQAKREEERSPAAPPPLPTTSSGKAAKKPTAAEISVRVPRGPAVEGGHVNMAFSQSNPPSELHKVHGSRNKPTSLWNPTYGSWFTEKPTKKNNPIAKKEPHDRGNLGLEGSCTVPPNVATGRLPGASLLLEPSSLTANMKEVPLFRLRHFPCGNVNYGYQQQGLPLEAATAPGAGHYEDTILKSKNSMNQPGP

Row | Compound | IC50 [1, 5] [µM] | ALK % of inhibition at a concentration of 500 nM or 1 mM [2, 6] [%] | IC50 (TYK2) [µM] | IC50 [3, 7] [µM] | IC50 [4, 8] [µM] | IC50 ([1]; Table B1) [µM] | IC50 (TYK2; Table B1) [µM] | IC50 ([3]; Table B1) [µM] | IC50 ([4]; Table B1) [µM] | further results
1 | COc1cccc(N2CCC(CC(=O)Nc3ccc4cc3CCc3cncc(c3)Nc3ncc(Cl)c(n3)N4)CC2)c1C#N [Example A233, N-[6-Chloro-2,4,8,18,22-pentaazatetracyclo[14.3.1.1(3,7).1(9,13)]docosa-1(20),3(22),4,6,9(21),10,12,16,18-nonaen-12-yl]-2-[1-(2-cyano-3-methoxyphenyl)piperidin-4-yl]acetamide tris(trifluoroacetate)] | > 0.4 | 24 | 0.026 | 0.0004 | 0.019 | – | – | – | – | –
2 | Cc1noc(C)c1NC(=O)Nc1ccc2cc1CCc1cccc(c1)Nc1ncc(Cl)c(n1)N2 [Example B94, N-[6-Chloro-2,4,8,22-tetraazatetracyclo[14.3.1.1(3,7).1(9,13)]docosa-1(20), 3(22),4,6,9(21),10,12,16,18-nonaen-12-yl]-N′-(3,5-dimethylisoxazol-4-yl)urea trifluoroacetate] | – | – | – | – | – | 0.051 | 0.013 | 0.0031 | 0.0038 | IC50 [2, 9]: > 1 µM
3 | CN1CCCC1CCNC(=O)Nc1ccc2cc1CCc1cccc(c1)Nc1ncc(Cl)c(n1)N2 (centres unmarked) [Example B256, N-[6-Chloro-2,4,8,22-tetraazatetracyclo[14.3.1.1(3,7).1(9,13)]docosa-1(20),3(22),4,6,9(21),10,12,16,18-nonaen-12-yl]-N′-[2-(1-methylpyrrolidin-2-yl)ethyl]urea bis(trifluoroacetate)] | – | – | – | – | – | 0.077 | 0.021 | 0.0042 | 0.013 | ALK % of inhibition at a concentration of 500 nM or 1 mM [2, 10]: 23%
4 | Cc1ccc2cc1Nc1ncc(Cl)c(n1)Nc1cccc(c1)CC2 [Example A7, 6-Chloro-19-methyl-2,4,8,22-tetraazatetracyclo[14.3.1.1(3,7).1(9,13)]docosa-1(20),3(22),4,6,9(21),10,12,16,18-nonaene trifluoroacetate] | 0.3 | – | 0.15 | 0.128 | 0.032 | – | – | – | – | IC50 ([2]; 90 μM ATP): 0.523 µM
5 | N#Cc1ccccc1NC(=O)N1CCC(CC(=O)Nc2ccc3cc2CCc2cncc(c2)Nc2ncc(Cl)c(n2)N3)CC1 [Example A141, 4-(2-{[6-Chloro-2,4,8,18,22-pentaazatetracyclo[14.3.1.1(3,7).1(9,13)]docosa-1(20),3(22),4,6,9(21),10,12,16,18-nonaen-12-yl]amino}-2-oxoethyl)-N-(2-cyanophenyl)piperidine-1-carboxamide bis(trifluoroacetate)] | > 0.1 | 19 | 0.013 | 0.0035 | 0.012 | – | – | – | – | –
6 | O=C(Nc1ccc2cc1CCc1cccc(c1)Nc1ncc(Cl)c(n1)N2)[C@@H]1CCN(C(=O)Nc2ccccc2)C1 [Example A54, (3R)—N(3)-[6-Chloro-2,4,8,22-tetraazatetracyclo[14.3.1.1(3,7).1(9,13)]docosa-1(20),3(22),4,6,9(21),10,12,16,18-nonaen-12-yl]-N(1)-phenylpyrrolidine-1,3-dicarboxamide trifluoroacetate] | 0.0035 | 54 | 0.012 | 0.004 | 0.0029 | – | – | – | – | –
7 | CC(C)NC(=O)Nc1ccc2cc1CCc1cccc(c1)Nc1ncc(Cl)c(n1)N2 [Example B116, N-[6-Chloro-2,4,8,22-tetraazatetracyclo[14.3.1.1(3,7).1(9,13)]docosa-1(20), 3(22),4,6,9(21),10,12,16,18-nonaen-12-yl]-N′-isopropylurea trifluoroacetate] | – | – | – | – | – | 0.026 | 0.01 | 0.0031 | 0.0035 | ALK % of inhibition at a concentration of 500 nM or 1 mM [2, 10]: 20%
8 | Cc1nccc(N2CCC(CC(=O)Nc3ccc4cc3CCc3cncc(c3)Nc3ncc(Cl)c(n3)N4)CC2)n1 [Example A182, N-[6-Chloro-2,4,8,18,22-pentaazatetracyclo[14.3.1.1(3,7).1(9,13)]docosa-1(20),3(22),4,6,9(21),10,12,16,18-nonaen-12-yl]-2-[1-(2-methylpyrimidin-4-yl)piperidin-4-yl]acetamide tris(trifluoroacetate)] | > 0.2 | 32 | > 0.2 | 0.048 | > 0.2 | – | – | – | – | –
9 | Cn1cncc1C(=O)Nc1cc2cc(c1)Nc1nc(ncc1Cl)Nc1cccc(c1)CC2 [Example B208, N-[6-Chloro-2,4,8,22-tetraazatetracyclo[14.3.1.1(3,7).1(9,13)]docosa-1(20),3(22),4,6,9(21),10,12,16,18-nonaen-11-yl]-1-methyl-1H-imidazole-5-carboxamide trifluoroacetate] | – | – | – | – | – | 0.084 | 0.15 | 0.209 | 0.057 | IC50 [2, 9]: > 1 µM
10 | CS(=O)(=O)N1CC[C@H](NC(=O)Nc2ccc3cc2CCc2cccc(c2)Nc2ncc(Cl)c(n2)N3)C1 [Example B172, N-[6-Chloro-2,4,8,22-tetraazatetracyclo[14.3.1.1(3,7).1(9,13)]docosa-1(20),3(22),4,6,9(21),10,12,16,18-nonaen-12-yl]-N′-[(3S)-1-(methylsulfonyl)pyrrolidin-3-yl]urea trifluoroacetate] | – | – | – | – | – | 0.017 | 0.0026 | 0.00082 | 0.0011 | ALK % of inhibition at a concentration of 500 nM or 1 mM [2, 10]: 24%
11 | NS(=O)(=O)N1CCC(CC(=O)Nc2ccc3cc2CCc2cccc(c2)Nc2ncc(Cl)c(n2)N3)CC1 [Example A75, 2-[1-(Aminosulfonyl)piperidin-4-yl]-N-[6-chloro-2,4,8,22-tetraazatetracyclo[14.3.1.1(3,7).1(9,13)]docosa-1(20),3(22),4,6,9(21),10,12,16,18-nonaen-12-yl]acetamide trifluoroacetate] | 0.0032 | 51 | 0.0003 | 0.0002 | 0.0002 | – | – | – | – | –
12 | O=C(Nc1ccc2cc1CCc1cccc(c1)Nc1ncc(Cl)c(n1)N2)N[C@H]1CCN(C(=O)c2nccs2)C1 [Example B231, N-[6-Chloro-2,4,8,22-tetraazatetracyclo[14.3.1.1(3,7).1(9,13)]docosa-1(20),3(22),4,6,9(21),10,12,16,18-nonaen-12-yl]-N′-[(3S)-1-(1,3-thiazol-2-ylcarbonyl)pyrrolidin-3-yl]urea trifluoroacetate] | – | – | – | – | – | 0.065 | 0.016 | 0.004 | 0.0055 | ALK % of inhibition at a concentration of 500 nM or 1 mM [2, 10]: 8.1%
13 | CS(=O)(=O)N1CCN(c2cc(-c3cc4cc(c3)Nc3ncc(Cl)c(n3)Nc3cccc(c3)OCC4)ccn2)CC1 [Example D36, 6-Chloro-19-{2-[4-(methylsulfonyl)piperazin-1-yl]pyridin-4-yl}-14-oxa-2,4,8,23-tetraazatetracyclo[15.3.1.1(3,7).1(9,13)]tricosa-1(21),3(23),4,6,9(22),10,12,17,19-nonaene bis(trifluoroacetate)] | – | – | – | – | – | – | – | – | – | IC50 ([1]; Table D1): 0.0049 µM; IC50 ([2]; Table D1, 90 μM ATP): 0.225 µM; IC50 (TYK2; Table D1): 0.0049 µM; IC50 ([3]; Table D1): 0.0013 µM; IC50 ([4]; Table D1): 0.0004 µM
14 | O=C(Nc1ccc2cc1CCc1cncc(c1)Nc1ncc(Cl)c(n1)N2)N1CCn2c(nnc2C(F)(F)F)C1 [Example B316, N-[6-Chloro-2,4,8,18,22-pentaazatetracyclo[14.3.1.1(3,7).1(9,13)]docosa-1(20),3(22),4,6,9(21),10,12,16,18-nonaen-12-yl]-3-(trifluoromethyl)-5,6-dihydro[1,2,4]triazolo[4,3-a]pyrazine-7(8H)-carboxamide tris(trifluoroacetate)] | – | – | – | – | – | > 0.4 | 0.208 | 0.016 | 0.18 | ALK % of inhibition at a concentration of 500 nM or 1 mM ([2]; percentage inhibition of the example compound at a concentration of 500 nM or 1 mM (not specified which)): 64%
15 | Clc1cnc2nc1Nc1cccc(c1)OCCc1cc(Br)cc(c1)N2 [Example D22, 19-Bromo-6-chloro-14-oxa-2,4,8,23-tetraazatetracyclo[15.3.1.1(3,7).1(9,13)]tricosa-1(21),3(23),4,6,9(22),10,12,17,19-nonaene trifluoroacetate] | – | – | – | – | – | – | – | – | – | IC50 ([1]; Table D1): 0.041 µM; IC50 ([2]; Table D1, 90 μM ATP): 0.489 µM; IC50 (TYK2; Table D1): 0.028 µM; IC50 ([3]; Table D1): 0.0042 µM; IC50 ([4]; Table D1): 0.0079 µM
16 | Cn1cccc1C(=O)Nc1ccc2cc1CCc1cccc(c1)Nc1ncc(Cl)c(n1)N2 [Example B50, N-[6-Chloro-2,4,8,22-tetraazatetracyclo[14.3.1.1(3,7).1(9,13)]docosa-1(20), 3(22),4,6,9(21),10,12,16,18-nonaen-12-yl]-1-methyl-1H-pyrrole-2-carboxamide trifluoroacetate] | – | – | – | – | – | 0.0025 | 0.0023 | 0.00044 | 0.00028 | IC50 [2, 9]: 0.23 µM
